Source: the SangsterLogP compilation

Test: method code SF, from DOI: 10.1021/jm201475u, PMID: 22339047
Settings: not given

Row | Structure (SMILES) | logP
1 | Cc1cn(C)c(F)c(O)c1=O | -0.65
2 | Cn1cc(O)c(=O)c(F)c1 | -1.32
3 | CCCn1ccc(=O)c(O)c1F | -0.08
4 | Cc1[nH]cc(F)c(=O)c1O | 0
5 | CC(C)n1cc(O)c(=O)c(F)c1 | -0.92
6 | CCCCn1ccc(=O)c(O)c1F | 0.38
7 | CCCn1cc(O)c(=O)c(F)c1 | -0.46
8 | Cc1c(O)c(=O)c(F)cn1C | -0.8
9 | CC(C)n1ccc(=O)c(O)c1F | -0.41
10 | Cn1ccc(=O)c(O)c1C(F)(F)F | -0.45
11 | Cn1ccc(=O)c(O)c1F | -0.97
12 | CCn1ccc(=O)c(O)c1F | -0.58
13 | O=c1cc[nH]c(C(O)C(F)(F)F)c1O (configuration not stated) | 0.14
14 | O=c1cc[nH]c(C(F)(F)F)c1O | 0.87
15 | O=c1c(O)c(F)[nH]c(F)c1F | 1.7
16 | CCn1cc(O)c(=O)c(F)c1 | -0.89
17 | O=c1cc(F)[nH]c(F)c1O | 1.35

Same assay, conditions: pH 7.4

Row | Structure (SMILES) | logD
18 | Cc1[nH]c(F)c(O)c(=O)c1C | 1.07
19 | Cc1c[nH]c(F)c(O)c1=O | 0.5
20 | CCc1c(O)c(=O)ccn1CC | 0.23
21 | O=c1cc[nH]c(F)c1O | -0.21
22 | Cc1cc(=O)c(O)c(F)[nH]1 | 0.25
